Results as given in US5760235A, “Anticoagulant peptide derivatives and pharmaceutical compositions containing the same as well as a process for preparation thereof” (Gyogyszerkutato Intezet Kft., priority 1992, dated 1998).

What was measured:
citrated blood plasma [1] = assay: In vitro thrombin time (TT), citrated blood plasma; type: biochemical, human; design: unit not given here
Protocol: (§1) The antithrombin activity of the compounds of general formula (I) was determined by the usual method [Bagdy et al.: Thromb Haemostas 67, 325-330 (1992)] by measuring whole blood clotting time (WBCT), thrombin time (TT) and activated partial thromboplastin time (APTT). The in vitro activity of some compounds of the invention assayed on native human blood (non-anticoagulated clotting) (WBCT) and on citrated blood plasma (TT and APTT) is presented in Table 1.
(§2) ^2 WBCT = whole blood clotting time, TT = thrombin time, APTT =
(§3) activated partial thromboplastin time parameter. The figures represent
(§4) concentrations of the compounds required to double the clotting time of
(§5) native whole human blood or of citrated blood plasma.

[2] = tested on: fibrinolysis induced by tissue plasminogen activator; assay: Fibrinolysis induced by tissue plasminogen activator, thromboelastogram; type: biochemical
Excerpt: The compounds of the general formula (I) inhibit clot formation without interfering with the natural lysis of blood clots in the body, e.g. fibrinolysis. […] Thromboelastography. In: Bang N. U., F. K. Beller, E. Deutsch, E. F. Mamman eds. Thrombosis and Bleeding Disorders. Theory and Methods. Academic Press, London, 1971: 70-76].

native whole human blood = assay: In vitro whole blood clotting time (WBCT), native human blood; type: biochemical; design: unit not given here
Protocol: as §1, §2, §3, §4, §5

citrated blood plasma [3] = assay: In vitro activated partial thromboplastin time (APTT), citrated blood plasma; type: biochemical, human; design: unit not given here
Protocol: as §1, §2, §3, §4, §5

citrated plasma [4] = assay: In vivo antithrombin effect in rabbits: citrated plasma thrombin time (TT)
Protocol: (§6) The in vivo antithrombin effect of the compounds of general formula (I) was treated in rabbits by a known method [Bagdy et al: Thromb Haemost 67, 357-365 (1992)]. The compounds were applied in a dose of 0.5-3.0 mg/kg s.c. and 5-15 mg/kg p.o. The effect was already detectable 15-30 minutes after drug administration, peak effect was attained after 90-120 minutes but the therapeutic effect was dose dependently maintained during 3 to longer than 5 hours.
(§7) The in vivo antithrombin effect of 3-cyclohexyl-D-lactyl-L-prolyl-L-arginine aldehyde hemisulfate (Example 7.) is presented in detail in Tables 2 and 3. The compound was administered in doses of 10 and 15 mg/kg, resp., p.o. and the blood samples taken from the ear-vein of the animals were assayed in every 30 minutes. The whole blood clotting time (WBCT) and the inhibition of whole blood platelet aggregation induced by thrombin (IWBA) were determined. Furthermore the citrated plasma thrombin time (TT) of the blood sample and the activated partial thromboplastin time (APTT) were measured, too. The WBCT and APTT values are presented in Table 2 and the TT and IWBA values in Table 3.

[5] = tested on: whole blood platelet aggregation induced by thrombin; assay: In vivo antithrombin effect in rabbits: inhibition of whole blood platelet aggregation induced by thrombin (IWBA)
Protocol: as §6, §7

whole blood clotting = assay: In vivo antithrombin effect in rabbits: whole blood clotting time (WBCT)
Protocol: as §6, §7

citrated plasma [6] = assay: In vivo antithrombin effect in rabbits: activated partial thromboplastin time (APTT)
Protocol: as §6, §7

N=C(N)NCCC[C@@H](C=O)NC(=O)[C@H]1CCCN1C(=O)C(O)c1ccccc1.N=C(N)NCCC[C@@H](C=O)NC(=O)[C@H]1CCCN1C(=O)C(O)c1ccccc1.O=S(=O)(O)O (stereo partly drawn) [Example 6, D-2-Phenyl-2-hydroxyacetyl-L-prolyl-L-arginine aldehyde hemisulfate]
TT: concentration required to double the clotting time (citrated blood plasma [1]): 0.040
inhibitory effect on fibrinolysis induced by tissue plasminogen activator [2]: only negligible inhibitory effect
WBCT: concentration required to double the clotting time (native whole human blood): 0.45
APTT: concentration required to double the clotting time (citrated blood plasma [3]): 0.15

N=C(N)NCCC[C@@H](C=O)NC(=O)[C@@H]1CCCN1C(=O)[C@H](O)CC1CCCCC1.N=C(N)NCCC[C@@H](C=O)NC(=O)[C@@H]1CCCN1C(=O)[C@H](O)CC1CCCCC1.O=S(=O)(O)O [Example 7, 3-Cyclohexyl-D-lactyl-L-prolyl-L-arginine aldehyde hemisulfate]
TT (citrated plasma [4]; 10 mg/kg p.o., time 0 min): 18.4 ± 2.1 s
TT (citrated plasma [4]; 10 mg/kg p.o., time 30 min): 317.1 ± 123.0 s
TT (citrated plasma [4]; 10 mg/kg p.o., time 60 min): 416.0 ± 107.2 s
TT (citrated plasma [4]; 10 mg/kg p.o., time 90 min): 444.7 ± 108.6 s
TT (citrated plasma [4]; 10 mg/kg p.o., time 120 min): 264.6 ± 101.3 s
TT (citrated plasma [4]; 10 mg/kg p.o., time 150 min): 201.1 ± 109.9 s
TT (citrated plasma [4]; 10 mg/kg p.o., time 180 min): 182.7 ± 113.6 s
TT (citrated plasma [4]; 10 mg/kg p.o., time 210 min): 123.0 ± 65.3 s
TT (citrated plasma [4]; 10 mg/kg p.o., time 240 min): 141.5 ± 81.3 s
TT (citrated plasma [4]; 10 mg/kg p.o., time 270 min): 65.4 ± 25.7 s
TT (citrated plasma [4]; 10 mg/kg p.o., time 300 min): 41.8 ± 11.4 s
TT (citrated plasma [4]; 15 mg/kg p.o., time 0 min): 18.9 ± 2.1 s
TT (citrated plasma [4]; 15 mg/kg p.o., time 30 min): 371.2 ± 142.3 s
TT (citrated plasma [4]; 15 mg/kg p.o., time 60 min): 528.3 ± 72.9 s
TT (citrated plasma [4]; 15 mg/kg p.o., time 90 min): 578.8 ± 21.5 s
TT (citrated plasma [4]; 15 mg/kg p.o., time 120 min): > 600.0 ± 0 s
TT (citrated plasma [4]; 15 mg/kg p.o., time 150 min): 549.6 ± 34.0 s
TT (citrated plasma [4]; 15 mg/kg p.o., time 180 min): 380.7 ± 116.0 s
TT (citrated plasma [4]; 15 mg/kg p.o., time 210 min): 342.1 ± 121.2 s
TT (citrated plasma [4]; 15 mg/kg p.o., time 240 min): 340.9 ± 137.0 s
TT (citrated plasma [4]; 15 mg/kg p.o., time 270 min): 376.4 ± 153.0 s
TT (citrated plasma [4]; 15 mg/kg p.o., time 300 min): 261.0 ± 140.8 s
IWBA ([5]; 10 mg/kg p.o., time 30 min): 89.4 ± 7.6%
IWBA ([5]; 10 mg/kg p.o., time 60 min): 95.8 ± 6.9%
IWBA ([5]; 10 mg/kg p.o., time 90 min): 81.6 ± 8.2%
IWBA ([5]; 10 mg/kg p.o., time 120 min): 94.0 ± 3.2%
IWBA ([5]; 10 mg/kg p.o., time 150 min): 71.4 ± 13.8%
IWBA ([5]; 10 mg/kg p.o., time 180 min): 72.4 ± 19.2%
IWBA ([5]; 10 mg/kg p.o., time 210 min): 54.4 ± 21.0%
IWBA ([5]; 10 mg/kg p.o., time 240 min): 50.6 ± 17.7%
IWBA ([5]; 10 mg/kg p.o., time 270 min): 35.2 ± 17.3%
IWBA ([5]; 10 mg/kg p.o., time 300 min): 48.2 ± 16.9%
IWBA ([5]; 15 mg/kg p.o., time 30 min): 81.4%
IWBA ([5]; 15 mg/kg p.o., time 60 min): 97.4%
IWBA ([5]; 15 mg/kg p.o., time 90 min): 100.0 ± 0%
IWBA ([5]; 15 mg/kg p.o., time 120 min): 100.0 ± 0%
IWBA ([5]; 15 mg/kg p.o., time 150 min): 100.0 ± 0%
IWBA ([5]; 15 mg/kg p.o., time 180 min): 100.0 ± 0%
IWBA ([5]; 15 mg/kg p.o., time 210 min): 93.7%
IWBA ([5]; 15 mg/kg p.o., time 240 min): 82.6%
IWBA ([5]; 15 mg/kg p.o., time 270 min): 81.0%
IWBA ([5]; 15 mg/kg p.o., time 300 min): 69.6%
WBCT (whole blood clotting; 10 mg/kg p.o., time 0 min): 13.2 ± 1.1 min
WBCT (whole blood clotting; 10 mg/kg p.o., time 30 min): 17.7 ± 1.6 min
WBCT (whole blood clotting; 10 mg/kg p.o., time 60 min): 23.6 ± 1.9 min
WBCT (whole blood clotting; 10 mg/kg p.o., time 90 min): 21.2 ± 2.9 min
WBCT (whole blood clotting; 10 mg/kg p.o., time 120 min): 18.8 ± 1.0 min
WBCT (whole blood clotting; 10 mg/kg p.o., time 150 min): 19.2 ± 1.1 min
WBCT (whole blood clotting; 10 mg/kg p.o., time 180 min): 18.4 ± 1.5 min
WBCT (whole blood clotting; 10 mg/kg p.o., time 210 min): 17.2 ± 2.3 min
WBCT (whole blood clotting; 10 mg/kg p.o., time 240 min): 15.8 ± 1.7 min
WBCT (whole blood clotting; 10 mg/kg p.o., time 270 min): 16.2 ± 2.1 min
WBCT (whole blood clotting; 10 mg/kg p.o., time 300 min): 13.5 ± 0.9 min
WBCT (whole blood clotting; 15 mg/kg p.o., time 0 min): 14.6 ± 0.4 min
WBCT (whole blood clotting; 15 mg/kg p.o., time 30 min): 24.2 ± 4.7 min
WBCT (whole blood clotting; 15 mg/kg p.o., time 60 min): 29.4 ± 4.5 min
WBCT (whole blood clotting; 15 mg/kg p.o., time 90 min): 33.0 ± 5.9 min
WBCT (whole blood clotting; 15 mg/kg p.o., time 120 min): 34.4 ± 4.4 min
WBCT (whole blood clotting; 15 mg/kg p.o., time 150 min): 27.2 ± 3.6 min
WBCT (whole blood clotting; 15 mg/kg p.o., time 180 min): 29.5 ± 2.7 min
WBCT (whole blood clotting; 15 mg/kg p.o., time 210 min): 34.0 ± 5.9 min
WBCT (whole blood clotting; 15 mg/kg p.o., time 240 min): 33.7 ± 6.5 min
WBCT (whole blood clotting; 15 mg/kg p.o., time 270 min): 26.0 ± 1.2 min
WBCT (whole blood clotting; 15 mg/kg p.o., time 300 min): 23.6 ± 3.3 min
APTT (citrated plasma [6]; 10 mg/kg p.o., time 0 min): 27.7 ± 1.2 s
APTT (citrated plasma [6]; 10 mg/kg p.o., time 30 min): 58.9 ± 9.0 s
APTT (citrated plasma [6]; 10 mg/kg p.o., time 60 min): 77.6 ± 14.6 s
APTT (citrated plasma [6]; 10 mg/kg p.o., time 90 min): 65.1 ± 8.4 s
APTT (citrated plasma [6]; 10 mg/kg p.o., time 120 min): 55.1 ± 11.4 s
APTT (citrated plasma [6]; 10 mg/kg p.o., time 150 min): 52.1 ± 6.6 s
APTT (citrated plasma [6]; 10 mg/kg p.o., time 180 min): 53.8 ± 8.5 s
APTT (citrated plasma [6]; 10 mg/kg p.o., time 210 min): 48.6 ± 3.8 s
APTT (citrated plasma [6]; 10 mg/kg p.o., time 240 min): 47.7 ± 7.4 s
APTT (citrated plasma [6]; 10 mg/kg p.o., time 270 min): 44.4 ± 3.7 s
APTT (citrated plasma [6]; 10 mg/kg p.o., time 300 min): 43.7 ± 5.0 s
APTT (citrated plasma [6]; 15 mg/kg p.o., time 0 min): 32.6 ± 4.6 s
APTT (citrated plasma [6]; 15 mg/kg p.o., time 30 min): 115.0 ± 36.6 s
APTT (citrated plasma [6]; 15 mg/kg p.o., time 60 min): 150.4 ± 30.9 s
APTT (citrated plasma [6]; 15 mg/kg p.o., time 90 min): 170.3 ± 18.5 s
APTT (citrated plasma [6]; 15 mg/kg p.o., time 120 min): 145.6 ± 22.7 s
APTT (citrated plasma [6]; 15 mg/kg p.o., time 150 min): 149.2 ± 22.0 s
APTT (citrated plasma [6]; 15 mg/kg p.o., time 180 min): 169.0 ± 23.0 s
APTT (citrated plasma [6]; 15 mg/kg p.o., time 210 min): 137.7 ± 25.8 s
APTT (citrated plasma [6]; 15 mg/kg p.o., time 240 min): 127.4 ± 25.7 s
APTT (citrated plasma [6]; 15 mg/kg p.o., time 270 min): 133.4 ± 24.7 s
APTT (citrated plasma [6]; 15 mg/kg p.o., time 300 min): 92.8 ± 18.4 s
TT: concentration required to double the clotting time (citrated blood plasma [1]): 0.072
inhibitory effect on fibrinolysis induced by tissue plasminogen activator [2]: only negligible inhibitory effect
WBCT: concentration required to double the clotting time (native whole human blood): 0.32
APTT: concentration required to double the clotting time (citrated blood plasma [3]): 0.20
